From US20050272770A1, “Compositions and treatments for inhibiting kinase and/or HMG-CoA reductase” (priority 2004, published 2005) come the findings set out here.

“And” between values parts separate entries of the source, which are not always exact repeats. Equal values may be shown once. Where a name gives a salt, the structure may show the parent alone. Read-outs that look alike come from different tables or passages of the source.

Assay [1] has as its target T1, human recombinant p38α protein kinase (Homo sapiens, UniProt Q16539).
T1 construct: purchased UBI 14-251; host or cells: E. coli
Nature of the assay: Human p38α MAP kinase inhibition assay (cell-free, phosphorylation of myelin basic protein). The format is biochemical. The method, then:
In vitro cell-free p38α MAP kinase inhibition assays were conducted by the method as described in Clerk et al., FEBS Lett., 426:93-96 (1998) for a number of lactones in formulas I/IIa/IIb. Briefly, human recombinant p38α protein kinase expressed in E. coli (UBI #14-251) was used. Myelin basic protein (MBP, UBI #13-110) was employed as substrate, and microtiter plate wells were coated with MBP (0.01 mg/ml) overnight at 4° C. Candidate compound and/or vehicle was preincubated with 0.075 μg/mL enzyme in modified HEPES buffer pH 7.4 at 25° C. for 15 minutes. The reaction was initiated by addition of 100 μM ATP and allowed to proceed for another 60 minutes. The reaction was terminated by aspirating the solution. Phosphorylated MBP was detected by incubation with a mouse monoclonal IgG2a anti-phosphoMBP antibody. Bound anti-phosphoMBP antibody was quantitated by incubation with a HRP conjugated goat anti-mouse IgG.

In assay [2] the test system is oxazolone-induced mouse ear swelling. As to the kind of experiment: Model for inhibition of topical inflammation (oxazolone-induced mouse ear swelling). Type of assay: in vivo, BALB/c male mice. To be noted: for % Inh. of oxazolone-induced mouse ear swelling: topical, ear thickness 24 hours after challenge. The protocol:
Left ears were untreated. The thickness of both ears of each animal was measured with a Dyer model micrometer gauge 24 hours after oxazolone challenge, and the net increase in thickness of right ears versus left ears was calculated for each animal. Percent inhibition was calculated according to the formula: [(Iv−It)/Iv]×100, where Iv and It respectively refer to the average net increase in right ear thickness (mm) for vehicle and candidate compound treated mice.

The subject of assay [3] is LPS-induced TNF-α release from human peripheral blood mononuclear cells. As to the kind of experiment: Whole cell LPS-stimulated TNF-α release assay. The format is cell-based. The method, then: The procedure as described in Welker et al., Int. Arch. Allergy and Immunol. 109:110-115 (1996) can be followed. Briefly, a candidate compound and/or vehicle can be preincubated with human peripheral blood mononuclear leukocytes (PBML, 5×10^5/ml) cells in AIM-V medium pH 7.4 for 2 hours. Lipopolysaccharide (LPS, 25 ng/ml) can be added to stimulate the cells, which can be incubated overnight at 37° C. TNF-α cytokine levels in the conditioned medium can then be quantitated using a sandwich ELISA kit.
(§1) Table III below summarizes the results of in vitro assays described above for HMG-CoA and/or MAP kinase inhibitory activity of specific pyrazole compounds.

Assay [4] deals with T2, rat liver HMG-CoA reductase (Rattus norvegicus, UniProt P51639).
T2 construct: from tissue; host or cells: rat liver (per the results' head)
T2 sequence (P51639 1-887): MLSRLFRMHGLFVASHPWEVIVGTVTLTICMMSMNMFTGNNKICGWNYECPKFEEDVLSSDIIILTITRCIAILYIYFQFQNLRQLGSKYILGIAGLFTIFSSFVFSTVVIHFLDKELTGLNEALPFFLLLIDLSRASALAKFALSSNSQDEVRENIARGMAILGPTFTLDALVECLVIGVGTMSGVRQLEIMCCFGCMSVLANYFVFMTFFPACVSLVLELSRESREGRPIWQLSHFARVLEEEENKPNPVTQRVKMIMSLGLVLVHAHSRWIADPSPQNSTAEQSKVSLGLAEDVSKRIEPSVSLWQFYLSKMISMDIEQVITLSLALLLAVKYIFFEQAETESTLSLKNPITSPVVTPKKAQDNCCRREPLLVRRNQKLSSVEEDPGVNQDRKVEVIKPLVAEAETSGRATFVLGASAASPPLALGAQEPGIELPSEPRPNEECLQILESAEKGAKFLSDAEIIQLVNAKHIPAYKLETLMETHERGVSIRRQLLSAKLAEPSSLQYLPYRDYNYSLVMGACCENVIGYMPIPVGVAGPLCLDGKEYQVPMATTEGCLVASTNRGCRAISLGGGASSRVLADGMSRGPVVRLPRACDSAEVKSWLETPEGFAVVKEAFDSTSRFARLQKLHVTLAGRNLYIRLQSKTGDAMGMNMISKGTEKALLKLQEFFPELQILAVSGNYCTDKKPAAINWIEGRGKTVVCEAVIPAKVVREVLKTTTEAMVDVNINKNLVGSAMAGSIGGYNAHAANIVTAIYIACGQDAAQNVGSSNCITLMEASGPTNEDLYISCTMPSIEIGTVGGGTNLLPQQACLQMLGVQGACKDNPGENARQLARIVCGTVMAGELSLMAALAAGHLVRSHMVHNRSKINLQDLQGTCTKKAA
Nature of the assay: Cell-free HMG-CoA reductase assay. Type of assay: biochemical. As to conditions: concentration required to inhibit rat liver HMG-CoA reductase by 50%; read-out: IC50 HMG-CoA R. The protocol: An example of a cell-free HMG-CoA reductase assay involves radiometric procedures described in Shum et al., Ther. Drug Monit. 20:41-49 (1998), incorporated herein by reference. Briefly, about 150 μg/mL of HMG-CoA reductase can be incubated with a candidate compound, together with about 12 μM [^14C]HMG-CoA and about 200 μM NADPH in about 200 μL 0.2M phosphate buffer (pH about 7.2) for about 0.5 h at about 37° C. The [^14C]mevalonate that forms can be converted under acidic conditions to [^14C]mevalonolactone and separated from un-reacted substrate, for example, by ion-exchange chromatography, and then quantified, for example, by liquid scintillation counting.
as §1

The mark [5] stands for this setting: in vitro, human p38α MAP kinase, Table I, read-out: IC50 p38α.
The mark [6] stands for this setting: Homo sapiens, PBMC; read-out: IC50 Whole cell.
[7] abbreviates: inhibition of phosphorylation of myelin basic protein by recombinant human p38α MAP kinase by 50%, Table III, read-out: IC50 p38α MAPK.
The mark [8] stands for this setting: Homo sapiens, PBMC, read-out: IC50 Whole cell.

T1 sequence (Q16539 whole entry): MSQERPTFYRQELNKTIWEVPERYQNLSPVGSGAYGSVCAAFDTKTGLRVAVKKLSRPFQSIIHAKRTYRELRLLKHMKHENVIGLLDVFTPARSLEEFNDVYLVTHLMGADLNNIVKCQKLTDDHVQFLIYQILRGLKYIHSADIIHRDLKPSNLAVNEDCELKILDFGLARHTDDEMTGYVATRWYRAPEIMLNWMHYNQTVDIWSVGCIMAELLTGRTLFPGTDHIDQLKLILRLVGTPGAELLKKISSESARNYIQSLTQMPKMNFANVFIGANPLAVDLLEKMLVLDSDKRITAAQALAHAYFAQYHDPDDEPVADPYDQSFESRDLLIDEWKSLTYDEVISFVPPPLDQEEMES

Usually IC50 stands for the concentration needed to halve the response being measured. Consider `CC(C)c1c(C(=O)Nc2ccccc2)c(-c2ccccc2)c(-c2ccc(F)cc2)n1CC[C@@H](O)C[C@@H](O)CC(=O)O` [Atorvastatin calcium], for which the concentration for half-maximal inhibition (IC50) in assay [1] (setting [5]) is above 100 µM.
Turning to `CC(C)c1c(C(=O)Nc2ccccc2)c(-c2ccccc2)c(-c2ccc(F)cc2)n1CC[C@@H]1C[C@@H](O)CC(=O)O1` [Atorvastatin lactone], the “anti-inflammatory activity in ear swelling model, comparison in words” value in assay [2] (observations on Table II) is listed as “most potent anti-inflammatory activity in this assay”. Further, the “% Inh. of oxazolone-induced mouse ear swelling” value in assay [2] (dose 2 × 0.3 mg) is 40%; in assay [2] (dose 2 × 0.3 mg, listed as atorvastatin lactone), 50% and 58% and 40%; in assay [2] (dose 2 × 1 mg), 58%; in assay [2] (dose 2 × 2 mg) it was 50%. In addition, the IC50 in assay [1] (setting [5]) is ~20 µM and 20 µM.
`CC(C)c1c(C(=O)Nc2ccccc2)c(-c2ccccc2)c(-c2ccc(F)cc2)n1CC[C@@H](O)C[C@@H](O)CC(=O)O` [Atorvastatin sodium]: the “% Inh. of oxazolone-induced mouse ear swelling” value in assay [2] (dose 2 × 0.3 mg) worked out at 9%; in assay [2] (dose 2 × 1 mg), 31%; in assay [2] (dose 2 × 2 mg) it was 63%.
`CCC(C)c1nn(-c2ccnc(Nc3ccccc3)c2)c(-c2ccc(F)cc2)c1/C=C/[C@@H]1C[C@@H](O)CC(=O)O1` (some centres unmarked) [Example 10b]: the half-inhibitory concentration (IC50) was 14 µM in assay [3] (setting [6]) and 6 µM in assay [1] (setting [7]).
Regarding `O=C(O)C[C@H](O)C[C@H](O)/C=C/c1c(-c2ccccc2)nn(-c2ccnc(Nc3ccccc3)n2)c1-c1ccccc1` [Example 11a, (3R,5S,E)-7-(3,5-diphenyl-1-(2-(phenylamino)pyrimidin-4-yl)-1H-pyrazol-4-yl)-3,5-dihydroxyhept-6-enoic acid calcium salt], the results for the IC50 in assay [3] (setting [8]), in assay [4] and in assay [1] (setting [7]) were 31 µM, 0.033 µM and 11 µM, respectively.
As to `O=C1C[C@H](O)C[C@@H](/C=C/c2c(-c3ccccc3)nn(-c3ccnc(Nc4ccccc4)n3)c2-c2ccccc2)O1` [Example 11b, (4R,6S,E)-6-(2-(3,5-diphenyl-1-(2-(phenylamino)pyrimidin-4-yl)-1H-pyrazol-4-yl)vinyl)-4-hydroxy-tetrahydropyran-2-one], the half-maximal inhibitory concentration (IC50) turned out to be 21 µM in assay [3] (setting [6]) and 6 µM in assay [1] (setting [7]).
Take `O=C(O)C[C@H](O)C[C@H](O)CCc1c(-c2ccccc2)nn(-c2ccnc(Nc3ccccc3)n2)c1-c1ccccc1` [Example 11c, (3R,5R)-7-(3,5-diphenyl-1-(2-(phenylamino)pyrimidin-4-yl)-1H-pyrazol-4-yl)-3,5-dihydroxyheptanoic acid]: the half-maximal inhibitory concentration (IC50) in assay [3] (setting [6]) is 18 µM; in assay [4] it was above 0.1 µM.
As for `O=C1C[C@H](O)C[C@@H](CCc2c(-c3ccccc3)nn(-c3ccnc(Nc4ccccc4)n3)c2-c2ccccc2)O1` [Example 11d, (4R,6R)-6-(2-(3,5-diphenyl-1-(2-(phenylamino)pyrimidin-4-yl)-1H-pyrazol-4-yl)ethyl)-4-hydroxy-tetrahydropyran-2-one], the values for the IC50 in assay [3] (setting [6]) and in assay [1] (setting [7]) were 11 µM and 8 µM, respectively.
Regarding `COc1nccc(-n2nc(C(C)C)c(/C=C/[C@@H](O)C[C@@H](O)CC(=O)O)c2-c2cccc(C(F)(F)F)c2)n1` [Example 11e, (3R,5S,E)-3,5-dihydroxy-7-(3-isopropyl-1-(2-methoxypyrimidin-4-yl)-5-(3-(trifluoromethyl)phenyl)-1H-pyrazol-4-yl)hept-6-enoic acid calcium salt], the values for the IC50 in assay [3] (inhibition of LPS-induced TNF-α release from human peripheral blood mononuclear cells by 50%; read-out: IC50 Whole cell), in assay [4] and in assay [1] (setting [7]) were 30 µM, 0.002 µM and 36 µM, respectively.
With `COc1nccc(-n2nc(C(C)C)c(/C=C/[C@@H]3C[C@@H](O)CC(=O)O3)c2-c2cccc(C(F)(F)F)c2)n1` [Example 11f, (4R,6S,E)-4-hydroxy-6-(2-(3-isopropyl-1-(2-methoxypyrimidin-4-yl)-5-(3-(trifluoromethyl)phenyl)-1H-pyrazol-4-yl)vinyl)-tetrahydropyran-2-one], the IC50 in assay [3] (setting [6]) is 16 µM; in assay [1] (setting [7]), above 100 µM.
`O=C(O)C[C@H](O)C[C@H](O)/C=C/c1cnn(-c2ccnc(Nc3ccccc3)n2)c1-c1cccc(C(F)(F)F)c1` [Example 11g, (3R,5S,E)-3,5-dihydroxy-7-(1-(2-(phenylamino)pyrimidin-4-yl)-5-(3-(trifluoromethyl)phenyl)-1H-pyrazol-4-yl)hept-6-enoic acid calcium salt]: the IC50 in assay [3] (setting [8]) is 52 µM; in assay [4] it was above 0.1 µM; in assay [1] (setting [7]) it was 14 µM.
As to `CC(C)n1c(/C=C/C(O)CC(O)CC(=O)O)c(-c2ccc(F)cc2)c2ccccc21` (centres unmarked) [Fluvastatin sodium], the “% Inh. of oxazolone-induced mouse ear swelling” value in assay [2] (dose 2 × 0.3 mg) is listed as 28%. The IC50 in assay [1] (setting [5]) was ~34 µM and 34 µM.
`COc1ccc2c(c1)c(CC(=O)O)c(C)n2C(=O)c1ccc(Cl)cc1` [Indomethacin]: in assay [2] (dose 2 × 0.3 mg), the “% Inh. of oxazolone-induced mouse ear swelling” value stood at 44%.
Regarding `O=C([O-])C[C@H](O)C[C@H](O)/C=C/c1c(C2CC2)nc2ccccc2c1-c1ccc(F)cc1.O=C([O-])C[C@H](O)C[C@H](O)/C=C/c1c(C2CC2)nc2ccccc2c1-c1ccc(F)cc1.[Ca+2]` [Pitavastatin calcium], the “% Inh. of oxazolone-induced mouse ear swelling” value in assay [2] (dose 2 × 0.3 mg) is on record as 9%; in assay [2] (dose 2 × 2 mg), 60%.
As for `CC[C@H](C)C(=O)O[C@H]1C[C@H](O)C=C2C=C[C@H](C)[C@H](CC[C@@H](O)C[C@@H](O)CC(=O)O)[C@H]21` [Pravastatin sodium], the “% Inh. of oxazolone-induced mouse ear swelling” value in assay [2] (dose 2 × 0.3 mg) is recorded as 24%.
Turning to `CC(C)c1nc(N(C)S(C)(=O)=O)nc(-c2ccc(F)cc2)c1/C=C/[C@@H](O)C[C@@H](O)CC(=O)O` [Rosuvastatin calcium], the IC50 in assay [1] (setting [5]) was determined as 92 µM.
For the compound `CC(C)c1nc(N(C)S(C)(=O)=O)nc(-c2ccc(F)cc2)c1/C=C/[C@@H](O)C[C@@H](O)CC(=O)O` [Rosuvastatin sodium], the “% Inh. of oxazolone-induced mouse ear swelling” value in assay [2] (dose 2 × 0.3 mg) was found to be 20%.
On to Simvastatin sodium, for which the 50% inhibitory concentration (IC50) in assay [1] (setting [5]) is above 100 µM.
